Laboratory results from PMC9715617 (Frontiers in Pharmacology, 2022).

Each compound was assayed against SARS-CoV-2 3CL^pro (Severe acute respiratory syndrome coronavirus 2, UniProt P0DTD1) (assay: SARS-CoV-2 3CLpro enzyme inhibition assay (fluorophore-quencher peptide substrate)). Details: 200 nM 3CLpro, 20 min preincubation, 30 min at 25°C, triplicate.
Assay type: biochemical
Description: Fluorescence intensity was measured on a microplate reader (λex = 485 nm; λem = 528 nm). Experiment was performed in triplicate.
`O=C(Nc1ccc(N(Cc2ccsc2)C(=O)Cn2nnc3ccccc32)cc1)C1CC1` [ML300, reference compound] gave an IC50 of 4010 ± 660 nM. Work on `O=C(N[C@@H](c1cccc(F)c1)C(F)(F)F)[C@@H](c1cnccn1)N(C(=O)c1ccco1)c1ccc(C2CCCCC2)cc1` [Hit 1] yielded an IC50 of 17 ± 3 nM. With `O=C(NCc1ccccc1)[C@@H](c1cccnc1)N(C(=O)c1ccco1)c1ccc(-c2cccs2)cc1` [Hit 4] the IC50 was 750 ± 40 nM. `C[C@H](NC(=O)[C@@H](c1cccnc1)N(C(=O)c1ccno1)c1ccc(C2CCCCC2)cc1)c1cccc(F)c1F` [Hit 3] was tested, and the IC50 was 90 ± 20 nM. In the case of `O=C(NCc1c(F)c(F)c(F)c(F)c1F)[C@@H](c1cccnc1)N(C(=O)c1ccno1)c1ccc(-c2cccs2)cc1` [Hit 2], the IC50 is reported as 830 ± 110 nM.

Same assay, conditions: ratio of IC50 values vs ML300
`O=C(N[C@@H](c1cccc(F)c1)C(F)(F)F)[C@@H](c1cnccn1)N(C(=O)c1ccco1)c1ccc(C2CCCCC2)cc1` [Hit 1] was tested, and the “inhibition activity, times stronger than that of ML300” value was “about 236 times”.
